Data published in US20080009418A1, “Selective Inhibitors” (Alchemia LTD., priority 2004, published 2008).

Tests used:
Human melanocortin (MC5) = target: T1, Human melanocortin (MC5) (Homo sapiens, UniProt P33032); assay: Radioligand binding, human melanocortin MC5 membranes, FlashPlate, [125I]-NDP-αMSH; conditions: compound at 10 μM; [125I]-NDP-αMSH
T1 construct: purchased Perkin Elmer Biosignal
Protocol: (§1) Cloned receptor membrane preparations from Perkin Elmer Biosignal™ were used in radioligand binding assays.
(§2) A1 Human δ-opioid (DOP), A2 Human κ-Opioid (KOP), A3 Human Melanocortin (MC3), A4 Human Melanocortin (MC4), A5 Human melanocortin (MC5), A6 Human melanin-concentrating hormone (MCH1), A7 Human μ-opioid (MOP), A8 Human neurokinin (NK1), A9 Human neuropeptide Y (NPY-Y1), A10 Human opioid (ORL1) A11 Mouse urotensin (mUR2)
(§3) Screening experiments were performed in either a 50 μl filtration or 25 μl FlashPlate assay format using the following protocol:
(§4) 19.5 μl buffer, 0.5 μl of compound diluted in DMSO, 5 μl of radioligand diluted in binding buffer.
(§5) The day prior to performing the experiment 50 μl DMSO was added to each well of the compound plates to yield compounds at a final concentration of 10 mM. Daughter plates were then created by diluting the compounds further in DMSO to a concentration of 0.5 mM. The mother plates were frozen immediately.
(§6) Immobilize membranes into FlashPlate microplates using PerkinElmer BioSignal's proprietary coating procedure. Dilute radioligand to 5× the final concentration in binding buffer. Add 19.5 μl buffer to each well of the FlashPlate. Add 0.5 μl of DMSO (total value, 5 wells), reference ligand (non-specific value, 3 wells) or compound to the corresponding wells in the FlashPlate microplate. Initiate the reaction by adding 5 μl of radioligand to each well. Apply TopSeal-A onto FlashPlate microplates. Incubate at room temperature for 1 hour in the dark. Count for 30 seconds per well on TopCount Microplate Scintillation and Luminescence Counter (PerkinElmer) using a count delay of 60 seconds.
(§7) Percentage inhibition was calculated using the following formula: [formula]

Human δ-opioid (DOP) = target: T2, Human δ-opioid (DOP) (Homo sapiens, UniProt P41143); assay: Radioligand binding, human δ-opioid (DOP) membranes, FlashPlate, [3H]-Bremazocine; conditions: compound at 10 μM; [3H]-Bremazocine
T2 construct: purchased Perkin Elmer Biosignal
T2 sequence (P41143 whole entry): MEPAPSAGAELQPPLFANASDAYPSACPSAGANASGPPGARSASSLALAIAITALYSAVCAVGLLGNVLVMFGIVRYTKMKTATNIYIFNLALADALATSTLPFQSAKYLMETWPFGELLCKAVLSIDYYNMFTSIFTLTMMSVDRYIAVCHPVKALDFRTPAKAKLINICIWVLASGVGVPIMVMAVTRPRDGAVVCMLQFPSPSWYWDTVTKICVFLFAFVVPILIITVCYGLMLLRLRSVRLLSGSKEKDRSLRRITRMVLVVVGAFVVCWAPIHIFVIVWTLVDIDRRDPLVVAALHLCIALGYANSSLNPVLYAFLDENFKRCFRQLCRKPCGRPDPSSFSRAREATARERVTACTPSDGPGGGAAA
Protocol: as §1, §2, §3, §4, §5, §6, §7

Human μ-opioid (MOP) = target: T3, Human μ-opioid (MOP) (Homo sapiens, UniProt P35372); assay: Radioligand binding, human μ-opioid (MOP) membranes, FlashPlate, [3H]-Naloxone; conditions: compound at 10 μM, [3H]-Naloxone
T3 construct: purchased Perkin Elmer Biosignal
T3 sequence (P35372 whole entry): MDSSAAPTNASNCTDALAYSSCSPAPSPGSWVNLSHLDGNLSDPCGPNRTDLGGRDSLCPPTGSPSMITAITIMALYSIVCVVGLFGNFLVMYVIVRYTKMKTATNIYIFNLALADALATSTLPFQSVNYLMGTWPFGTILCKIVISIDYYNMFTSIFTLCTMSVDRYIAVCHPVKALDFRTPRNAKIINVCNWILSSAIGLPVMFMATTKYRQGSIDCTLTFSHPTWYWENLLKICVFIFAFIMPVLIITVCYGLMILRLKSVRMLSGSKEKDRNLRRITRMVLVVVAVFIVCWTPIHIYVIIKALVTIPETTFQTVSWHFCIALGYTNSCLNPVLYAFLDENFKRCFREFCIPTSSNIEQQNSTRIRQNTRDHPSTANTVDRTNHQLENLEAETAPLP
Protocol: as §1, §2, §3, §4, §5, §6, §7

Mouse urotensin (mUR2) = target: T4, Mouse urotensin (mUR2) (Mus musculus, UniProt Q8VIH9); assay: Radioligand binding, mouse urotensin mUR2 membranes, FlashPlate, [125I]-Urotensin II; conditions: compound at 10 μM; [125I]-Urotensin II
T4 construct: purchased Perkin Elmer Biosignal
T4 sequence (Q8VIH9 1-385): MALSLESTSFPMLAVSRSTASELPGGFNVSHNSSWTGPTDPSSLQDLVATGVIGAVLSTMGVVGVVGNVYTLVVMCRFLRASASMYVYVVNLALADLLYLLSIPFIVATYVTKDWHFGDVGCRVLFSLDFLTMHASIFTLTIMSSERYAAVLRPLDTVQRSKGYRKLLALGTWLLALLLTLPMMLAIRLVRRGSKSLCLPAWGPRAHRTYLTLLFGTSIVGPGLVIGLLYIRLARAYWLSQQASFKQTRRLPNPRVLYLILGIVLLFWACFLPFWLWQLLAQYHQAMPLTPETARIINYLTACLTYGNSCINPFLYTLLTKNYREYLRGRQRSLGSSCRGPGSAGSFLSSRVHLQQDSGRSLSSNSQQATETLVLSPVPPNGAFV
Protocol: as §1, §2, §3, §4, §5, §6, §7

Human κ-Opioid (KOP) = target: T5, Human κ-Opioid (KOP) (Homo sapiens, UniProt P41145); assay: Radioligand binding, human κ-opioid (KOP) membranes, filtration, [3H]-Diprenorphine; conditions: compound at 10 μM, [3H]-Diprenorphine
T5 construct: purchased Perkin Elmer Biosignal
T5 sequence (P41145 whole entry): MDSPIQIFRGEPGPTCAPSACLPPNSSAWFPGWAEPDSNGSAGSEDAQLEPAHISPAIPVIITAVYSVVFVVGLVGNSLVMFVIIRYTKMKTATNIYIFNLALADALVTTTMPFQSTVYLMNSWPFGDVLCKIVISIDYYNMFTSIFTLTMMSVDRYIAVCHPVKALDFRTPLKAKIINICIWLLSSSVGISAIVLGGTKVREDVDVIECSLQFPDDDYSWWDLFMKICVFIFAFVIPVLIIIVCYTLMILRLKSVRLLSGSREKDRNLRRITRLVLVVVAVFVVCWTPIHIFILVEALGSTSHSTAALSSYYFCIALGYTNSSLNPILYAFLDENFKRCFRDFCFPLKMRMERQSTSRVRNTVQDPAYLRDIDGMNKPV
Protocol: as §1, §2, §3
(§8) 44 μl membranes diluted in buffer, 1 μl of compound diluted in DMSO, 5 μl of radioligand diluted in binding buffer.
as §5
(§9) Thaw membranes on ice then dilute membranes in binding buffer at a concentration of 1 Unit per well. Dilute radio-ligand to 10 times the final concentration in binding buffer. Add 44 μl of diluted membranes to each well of the deep-well plate. Add 1 μl of DMSO (total value, 5 wells), reference ligand (non-specific value, 3 wells) or compound to the corresponding wells in the deep-well plate. Initiate the reaction by adding 5 μl of radioligand to each well and vortex gently. Incubate at room temperature for 1 hour. During incubation, pre-incubate the Multiscreen Harvest plates in 0.3% PEI. Filter over pre-soaked Multiscreen Harvest plates using a Tomtec Harvester. Wash 9 times with 500 μl of cold 50 mM Tris-HCl pH 7.4 at 4° C. and air-dry for 30 minutes at room temperature under a fume hood. Apply a bottom seal to the Multiscreen Harvest plates. Add 25 μl of MicroScint-0 to each well. Apply TopSeal-A to the plate. Count for 30 seconds per well on TopCount Microplate Scintillation and Luminescence Counter (PerkinElmer) using a count delay of 60 seconds.
as §7

Human opioid (ORL1) = target: T6, Human opioid (ORL1) (Homo sapiens, UniProt P41146); assay: Radioligand binding, human opioid ORL1 membranes, FlashPlate, [125I]-Nociceptin; conditions: compound at 10 μM; [125I]-Nociceptin
T6 construct: purchased Perkin Elmer Biosignal
T6 sequence (P41146 whole entry): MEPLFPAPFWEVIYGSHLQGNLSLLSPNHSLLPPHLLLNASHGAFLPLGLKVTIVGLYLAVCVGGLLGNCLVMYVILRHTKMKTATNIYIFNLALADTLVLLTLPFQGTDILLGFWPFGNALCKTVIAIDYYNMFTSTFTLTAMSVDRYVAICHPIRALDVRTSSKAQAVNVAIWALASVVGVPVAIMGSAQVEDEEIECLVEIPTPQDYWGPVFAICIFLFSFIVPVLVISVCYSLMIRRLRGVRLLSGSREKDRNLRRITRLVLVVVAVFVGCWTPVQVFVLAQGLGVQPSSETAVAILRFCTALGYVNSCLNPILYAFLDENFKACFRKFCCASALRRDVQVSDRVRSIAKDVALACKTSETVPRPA
Protocol: as §1, §2, §3, §4, §5, §6, §7

[1] = target: T7, Human neuropeptide Y (NPY-Y1) (Homo sapiens, UniProt P25929); assay: Radioligand binding, human neuropeptide Y NPY-Y1 membranes, FlashPlate, [125I]-PYY; conditions: compound at 10 μM; [125I]-PYY
T7 construct: purchased Perkin Elmer Biosignal
T7 sequence (P25929 1-384): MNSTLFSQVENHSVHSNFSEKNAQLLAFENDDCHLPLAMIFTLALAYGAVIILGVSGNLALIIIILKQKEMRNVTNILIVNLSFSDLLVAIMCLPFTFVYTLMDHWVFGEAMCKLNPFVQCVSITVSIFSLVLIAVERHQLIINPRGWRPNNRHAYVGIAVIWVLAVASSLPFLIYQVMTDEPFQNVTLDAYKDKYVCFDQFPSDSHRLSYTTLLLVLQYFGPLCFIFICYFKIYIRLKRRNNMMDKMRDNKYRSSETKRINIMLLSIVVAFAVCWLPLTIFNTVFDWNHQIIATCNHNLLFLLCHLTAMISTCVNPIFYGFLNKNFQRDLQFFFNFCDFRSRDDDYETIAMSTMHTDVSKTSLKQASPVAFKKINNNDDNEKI
Protocol: as §1, §2, §3, §4, §5, §6, §7

Human neurokinin (NK1) = target: T8, Human neurokinin (NK1) (Homo sapiens, UniProt P25103); assay: Radioligand binding, human neurokinin NK1 membranes, filtration, [125I]-Substance P; conditions: compound at 10 μM; [125I]-Substance P
T8 construct: purchased Perkin Elmer Biosignal
T8 sequence (P25103 whole entry): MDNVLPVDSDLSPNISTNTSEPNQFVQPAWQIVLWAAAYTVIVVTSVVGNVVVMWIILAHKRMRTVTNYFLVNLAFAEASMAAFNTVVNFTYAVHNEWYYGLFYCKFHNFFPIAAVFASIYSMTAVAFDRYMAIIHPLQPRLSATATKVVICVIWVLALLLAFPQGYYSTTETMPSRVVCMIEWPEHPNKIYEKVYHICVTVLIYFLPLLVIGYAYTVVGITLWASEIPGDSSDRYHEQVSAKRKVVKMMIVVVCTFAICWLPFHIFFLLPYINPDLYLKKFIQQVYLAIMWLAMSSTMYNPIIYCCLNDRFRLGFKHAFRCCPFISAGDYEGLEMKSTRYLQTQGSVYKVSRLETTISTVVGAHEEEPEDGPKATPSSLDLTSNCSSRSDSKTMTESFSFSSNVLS
Protocol: as §1, §2, §3, §8, §5, §9, §7

[2] = target: T9, Human melanin-concentrating hormone (MCH1) (Homo sapiens, UniProt Q99705); assay: Radioligand binding, human melanin-concentrating hormone MCH1 membranes, FlashPlate, [125I]-S36057; conditions: compound at 10 μM, [125I]-S36057
T9 construct: purchased Perkin Elmer Biosignal
T9 sequence (Q99705 whole entry): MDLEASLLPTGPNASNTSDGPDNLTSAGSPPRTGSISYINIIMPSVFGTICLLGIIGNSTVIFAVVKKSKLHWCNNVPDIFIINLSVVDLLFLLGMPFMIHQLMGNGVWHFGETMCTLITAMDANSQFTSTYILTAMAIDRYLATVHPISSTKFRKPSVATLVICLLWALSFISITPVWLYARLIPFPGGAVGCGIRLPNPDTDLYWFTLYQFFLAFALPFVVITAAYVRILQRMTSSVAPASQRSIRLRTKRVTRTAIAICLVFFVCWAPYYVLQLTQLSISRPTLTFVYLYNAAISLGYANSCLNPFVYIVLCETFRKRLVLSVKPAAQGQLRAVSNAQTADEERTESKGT
Protocol: as §1, §2, §3, §4, §5, §6, §7

Human Melanocortin (MC4) = target: T10, Human Melanocortin (MC4) (Homo sapiens, UniProt P32245); assay: Radioligand binding, human melanocortin MC4 membranes, FlashPlate, [125I]-NDP-αMSH; conditions: compound at 10 μM; [125I]-NDP-αMSH
T10 construct: purchased Perkin Elmer Biosignal
T10 sequence (P32245 whole entry): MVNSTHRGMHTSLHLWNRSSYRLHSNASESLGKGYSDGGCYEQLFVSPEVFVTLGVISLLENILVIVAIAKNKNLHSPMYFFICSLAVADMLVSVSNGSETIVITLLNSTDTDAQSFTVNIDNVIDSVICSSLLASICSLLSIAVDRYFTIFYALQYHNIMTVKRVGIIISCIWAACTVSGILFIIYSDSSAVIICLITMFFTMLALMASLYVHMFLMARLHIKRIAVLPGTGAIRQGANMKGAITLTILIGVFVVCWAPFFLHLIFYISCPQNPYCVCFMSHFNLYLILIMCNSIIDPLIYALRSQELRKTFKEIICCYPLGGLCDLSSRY
Protocol: as §1, §2, §3, §4, §5, §6, §7

Human Melanocortin (MC3) = target: T11, Human Melanocortin (MC3) (Homo sapiens, UniProt P41968); assay: Radioligand binding, human melanocortin MC3 membranes, FlashPlate, [125I]-NDP-αMSH; conditions: compound at 10 μM, [125I]-NDP-αMSH
T11 construct: purchased Perkin Elmer Biosignal
T11 sequence (P41968 whole entry): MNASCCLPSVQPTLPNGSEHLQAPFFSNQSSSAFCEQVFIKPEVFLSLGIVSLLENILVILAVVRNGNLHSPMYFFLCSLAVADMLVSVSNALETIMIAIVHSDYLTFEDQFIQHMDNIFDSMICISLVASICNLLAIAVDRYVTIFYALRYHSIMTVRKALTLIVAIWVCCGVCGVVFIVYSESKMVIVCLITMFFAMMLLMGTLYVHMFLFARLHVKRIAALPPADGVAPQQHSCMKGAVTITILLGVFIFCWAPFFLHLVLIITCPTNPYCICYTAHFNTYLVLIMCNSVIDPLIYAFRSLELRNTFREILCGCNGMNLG
Protocol: as §1, §2, §3, §4, §5, §6, §7

T1 sequence (P33032 whole entry): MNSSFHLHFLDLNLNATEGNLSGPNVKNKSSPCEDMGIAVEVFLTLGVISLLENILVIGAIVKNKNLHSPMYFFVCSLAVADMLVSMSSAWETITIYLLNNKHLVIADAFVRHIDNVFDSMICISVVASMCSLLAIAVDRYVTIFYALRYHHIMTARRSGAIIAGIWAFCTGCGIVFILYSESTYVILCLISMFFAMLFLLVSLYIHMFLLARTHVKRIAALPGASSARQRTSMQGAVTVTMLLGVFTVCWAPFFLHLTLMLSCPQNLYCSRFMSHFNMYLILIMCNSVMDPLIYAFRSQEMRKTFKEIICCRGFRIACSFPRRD

SMILES | A5: inhibition of radioligand binding, human melanocortin (MC5) (Human melanocortin (MC5)) | A1: inhibition of radioligand binding, human δ-opioid (DOP) (Human δ-opioid (DOP)) | A7: inhibition of radioligand binding, human μ-opioid (MOP) (Human μ-opioid (MOP); 10 µM) | A11: inhibition of radioligand binding, mouse urotensin (mUR2) (Mouse urotensin (mUR2)) | A2: inhibition of radioligand binding, human κ-opioid (KOP) (Human κ-Opioid (KOP)) | A10: inhibition of radioligand binding, human opioid (ORL1) (Human opioid (ORL1)) | A9: inhibition of radioligand binding, human neuropeptide Y (NPY-Y1) [1] | A8: inhibition of radioligand binding, human neurokinin (NK1) (Human neurokinin (NK1)) | A6: inhibition of radioligand binding, human melanin-concentrating hormone (MCH1) ([2]; 10 µM) | A4: inhibition of radioligand binding, human melanocortin (MC4) (Human Melanocortin (MC4)) | A3: inhibition of radioligand binding, human melanocortin (MC3) (Human Melanocortin (MC3); 10 µM) | A7: inhibition of radioligand binding, human μ-opioid (MOP) (Human μ-opioid (MOP)) | A2: inhibition of radioligand binding, human κ-opioid (KOP) (Human κ-Opioid (KOP); 10 µM) | A6: inhibition of radioligand binding, human melanin-concentrating hormone (MCH1) [2] | A3: inhibition of radioligand binding, human melanocortin (MC3) (Human Melanocortin (MC3))
NCCCC(=O)NC1C(OCc2ccc(Cl)cc2)OC(COCc2ccc3ccccc3c2)C(O)C1OCc1ccccc1 (single isomer, unassigned) [compound 501] | + (“+” indicates greater than 50% inhibition at 10 μM) | − (“−” indicates less than 50% inhibition at 10 μM) | − (“−” indicates less than 50% inhibition at 10 μM) | − (“−” indicates less than 50% inhibition at 10 μM) | − (“−” indicates less than 50% inhibition at 10 μM) | + (“+” indicates greater than 50% inhibition at 10 μM) | − (“−” indicates less than 50% inhibition at 10 μM) | + (“+” indicates greater than 50% inhibition at 10 μM) | − (“−” indicates less than 50% inhibition at 10 μM) | + (“+” indicates greater than 50% inhibition at 10 μM) | + (“+” indicates greater than 50% inhibition at 10 μM) |  |  |  | 
NCCC(=O)NC1C(OCc2ccc(Cl)cc2)OC(COCc2ccc(Cl)cc2)C(O)C1OCc1ccc2ccccc2c1 (single isomer, unassigned) [compound 481] | + (“+” indicates greater than 50% inhibition at 10 μM) | − (“−” indicates less than 50% inhibition at 10 μM) |  | − (“−” indicates less than 50% inhibition at 10 μM) |  | + (“+” indicates greater than 50% inhibition at 10 μM) | − (“−” indicates less than 50% inhibition at 10 μM) | + (“+” indicates greater than 50% inhibition at 10 μM) |  | + (“+” indicates greater than 50% inhibition at 10 μM) |  | − (“−” indicates less than 50% inhibition at 10 μM) | + (“+” indicates greater than 50% inhibition at 10 μM) | + (“+” indicates greater than 50% inhibition at 10 μM) | + (“+” indicates greater than 50% inhibition at 10 μM)
